Here are results for 1 compound from ChEMBL document CHEMBL1153669, “Rs-100235: A high affinity 5-HT4 receptor antagonist” (Bioorg Med Chem Lett, 1995).

In general, Ki refers to the dissociation constant of the complex between target and ligand, obtained from inhibition or displacement.

Experiment [1] addresses T1, Type-2 angiotensin II receptor (Homo sapiens, UniProt P50052).
T1 sequence (P50052 whole entry): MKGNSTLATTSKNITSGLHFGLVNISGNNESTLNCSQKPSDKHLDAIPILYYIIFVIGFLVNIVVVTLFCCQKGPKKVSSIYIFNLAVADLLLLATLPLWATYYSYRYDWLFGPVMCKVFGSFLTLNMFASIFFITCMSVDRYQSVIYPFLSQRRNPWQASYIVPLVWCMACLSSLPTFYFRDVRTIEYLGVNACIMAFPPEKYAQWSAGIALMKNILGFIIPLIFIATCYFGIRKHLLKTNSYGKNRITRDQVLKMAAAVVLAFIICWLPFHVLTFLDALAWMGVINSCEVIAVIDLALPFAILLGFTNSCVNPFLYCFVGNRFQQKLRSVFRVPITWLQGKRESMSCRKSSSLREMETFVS
Description: Compound was evaluated for binding affinity against Angiotensin II receptor, type 2 using radioligand binding assay.

For experiment [2], the target named is T2, 5-hydroxytryptamine receptor 1A (Mus musculus, UniProt Q64264).
T2 sequence (Q64264 whole entry): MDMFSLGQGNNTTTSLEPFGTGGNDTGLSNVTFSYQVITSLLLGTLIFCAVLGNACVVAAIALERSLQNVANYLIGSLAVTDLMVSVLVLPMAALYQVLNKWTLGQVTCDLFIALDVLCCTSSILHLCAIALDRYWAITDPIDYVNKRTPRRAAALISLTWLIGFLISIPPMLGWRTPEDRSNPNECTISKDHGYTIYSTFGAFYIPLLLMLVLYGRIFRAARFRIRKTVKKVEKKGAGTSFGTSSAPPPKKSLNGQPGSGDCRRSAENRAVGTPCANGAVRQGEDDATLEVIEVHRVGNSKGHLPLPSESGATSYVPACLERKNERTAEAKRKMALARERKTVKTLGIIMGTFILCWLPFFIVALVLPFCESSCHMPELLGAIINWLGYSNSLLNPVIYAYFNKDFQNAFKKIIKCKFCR
Put plainly: Compound was evaluated for binding affinity against 5-hydroxytryptamine 1A receptor using radioligand binding assay.

Experiment [3] deals with T3, Alpha-2B adrenergic receptor (Homo sapiens, UniProt P18089).
T3 sequence (P18089 whole entry): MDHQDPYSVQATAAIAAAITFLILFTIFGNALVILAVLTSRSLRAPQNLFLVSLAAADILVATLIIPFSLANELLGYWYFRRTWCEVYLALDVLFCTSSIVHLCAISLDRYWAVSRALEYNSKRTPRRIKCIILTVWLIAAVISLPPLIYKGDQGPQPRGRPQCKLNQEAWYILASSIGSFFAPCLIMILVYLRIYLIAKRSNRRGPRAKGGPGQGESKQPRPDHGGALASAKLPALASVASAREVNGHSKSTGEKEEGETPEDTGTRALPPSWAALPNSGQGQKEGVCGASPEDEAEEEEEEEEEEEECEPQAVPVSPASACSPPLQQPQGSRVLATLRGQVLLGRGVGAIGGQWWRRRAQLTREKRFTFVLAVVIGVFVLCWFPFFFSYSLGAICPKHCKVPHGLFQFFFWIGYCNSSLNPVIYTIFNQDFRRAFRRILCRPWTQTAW
Description: Compound was evaluated for binding affinity against Alpha-2B adrenergic receptor using radioligand binding assay.

Experiment [4] addresses T4, Alpha-1B adrenergic receptor (Homo sapiens, UniProt P35368).
T4 sequence (P35368 whole entry): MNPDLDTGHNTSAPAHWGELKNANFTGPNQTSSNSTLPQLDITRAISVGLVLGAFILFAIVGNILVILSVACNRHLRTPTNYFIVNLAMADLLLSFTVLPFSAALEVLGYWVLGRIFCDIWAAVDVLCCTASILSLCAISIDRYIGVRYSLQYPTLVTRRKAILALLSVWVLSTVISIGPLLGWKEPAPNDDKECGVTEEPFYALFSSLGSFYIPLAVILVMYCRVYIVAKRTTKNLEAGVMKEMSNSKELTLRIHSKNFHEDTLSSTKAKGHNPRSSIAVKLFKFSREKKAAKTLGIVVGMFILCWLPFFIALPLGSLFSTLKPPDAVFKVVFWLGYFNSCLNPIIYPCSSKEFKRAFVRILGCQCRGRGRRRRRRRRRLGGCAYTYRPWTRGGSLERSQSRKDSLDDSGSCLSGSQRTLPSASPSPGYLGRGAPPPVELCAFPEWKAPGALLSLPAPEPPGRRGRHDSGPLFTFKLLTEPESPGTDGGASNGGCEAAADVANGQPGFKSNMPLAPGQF
Description: Compound was evaluated for binding affinity against Alpha-1B adrenergic receptor using radioligand binding assay.

Experiment [5] concerns the target T5, Muscarinic acetylcholine receptor M2 (Homo sapiens, UniProt P08172).
T5 sequence (P08172 whole entry): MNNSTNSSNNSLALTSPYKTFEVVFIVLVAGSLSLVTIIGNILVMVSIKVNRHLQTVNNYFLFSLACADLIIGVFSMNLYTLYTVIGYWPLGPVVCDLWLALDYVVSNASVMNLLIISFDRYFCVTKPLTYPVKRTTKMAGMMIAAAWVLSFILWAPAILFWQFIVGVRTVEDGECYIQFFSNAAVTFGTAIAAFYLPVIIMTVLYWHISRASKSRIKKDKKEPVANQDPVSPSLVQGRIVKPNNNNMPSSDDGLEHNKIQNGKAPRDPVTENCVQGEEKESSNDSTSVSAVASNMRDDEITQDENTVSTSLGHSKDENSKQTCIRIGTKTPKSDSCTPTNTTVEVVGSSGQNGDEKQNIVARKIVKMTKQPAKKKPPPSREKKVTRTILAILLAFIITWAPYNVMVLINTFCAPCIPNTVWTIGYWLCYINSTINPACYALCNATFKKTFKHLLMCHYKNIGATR
Description: Compound was evaluated for binding affinity against Muscarinic M2 receptor using radioligand binding assay.

In experiment [6] the target is T6, 5-hydroxytryptamine receptor 2C (Homo sapiens, UniProt P28335).
T6 sequence (P28335 whole entry): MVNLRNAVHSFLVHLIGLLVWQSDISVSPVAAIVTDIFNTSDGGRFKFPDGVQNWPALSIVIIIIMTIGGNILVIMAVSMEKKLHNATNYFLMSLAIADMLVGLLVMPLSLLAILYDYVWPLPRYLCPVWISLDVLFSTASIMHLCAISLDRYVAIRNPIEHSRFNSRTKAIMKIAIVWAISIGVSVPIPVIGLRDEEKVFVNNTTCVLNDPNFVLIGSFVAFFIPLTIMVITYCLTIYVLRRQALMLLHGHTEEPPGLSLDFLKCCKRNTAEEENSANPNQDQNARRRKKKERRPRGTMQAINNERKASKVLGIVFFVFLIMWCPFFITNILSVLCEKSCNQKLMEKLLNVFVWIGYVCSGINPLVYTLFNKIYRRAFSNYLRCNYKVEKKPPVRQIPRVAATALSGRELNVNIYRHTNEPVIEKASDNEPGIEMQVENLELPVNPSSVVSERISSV
Description: Compound was evaluated for binding affinity against 5-hydroxytryptamine 2C receptor using radioligand binding assay.

In the next experiment the test system is Sus scrofa. Description: Antagonism of 5-HT-induced tachycardia in anesthetized, vagotomized Yucatan micropigs at 0.1-30 ug/kg dose administered intraduodenally. The format is functional. Conditions: intraduodenal, read-out: ID50 (the source's name).
Experiment [7] addresses Serotonin 3 (5-HT3) receptor. Description: Compound was evaluated for binding affinity against 5-hydroxytryptamine 3 receptor using radioligand binding assay. The experiment is classed as protein-complex assay.

Some results are limits rather than exact numbers.

Take `COc1ccc(CCCN2CCC(CCC(=O)c3cc(Cl)c(N)c4c3OCCO4)CC2)cc1OC`: the Ki in experiment [1] is above 10000 nM; in experiment [2] it was 1000 nM; in experiment [3], 2510 nM; in experiment [4], 501 nM; in experiment [5], 1260 nM; in experiment [6], 1580 nM. Moreover, in the experiment with Sus scrofa, the ED50 amounted to 1.52 µg/kg. The “Log Ki” value in experiment [7] is -6.3.
